Earlier results, collected in patent US20080247991A1, “Solution Additives For the Attenuation of Protein Aggregation” (priority 2004, published 2008).
Marks after values point to notes of the source that are not given here.

Molecular target: T1, RNase A (Bos taurus, UniProt P61823)
T1 sequence (P61823 27-150): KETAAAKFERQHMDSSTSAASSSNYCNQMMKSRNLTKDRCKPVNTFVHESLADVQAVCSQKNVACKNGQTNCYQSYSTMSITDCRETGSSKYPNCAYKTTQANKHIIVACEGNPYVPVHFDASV
Conditions: interpolated to mbulk 0.91 m; cited from earlier work

OCC(O)CO [Glycerol]
Experimental ΓXP: −1.7 ± 0.8^b
